The record followed here is patent US10406098B2, “Injection solution comprising a non-nucleoside reverse-transcriptase inhibitor and poly(lactide-co-glycolide)” (Evonik Roehm GmbH, priority 2015, dated 2019).

This data set is described as follows: Release test in phosphate buffer saline pH 7.4 (standard body-fluid single compartment release experiment). It counts as physicochemical. The conditions noted are these: PBS pH 7.4, samples at 0, 1, 2, 4, 24 and 96 hours, HPLC; comparative statement. How it is done:
Example Performance in a standard body-fluid single compartment release experiment Release Test: 100 ml of phosphate buffer saline pH 7.4 (PBS, British Pharmacopoeia) are given to a 200 ml volumetric flask. […] PBS-buffer is filled up to 200 ml. API release studies were performed in triplicate. Samples (2 ml) for HPLC analysis were taken at 0, 1, 2, 4, 24 and 96 hours and centrifuged for 5 minutes at 13400 rpm the supernatant was injected according to the HPLC method in Table 5. At 2, 4 and 24 hours 100 ml of the dissolution medium were pulled and 100 ml of fresh buffer was added (PBS 7.4). [table]

Molecules are shown by their SMILES.

On to `O=C1Nc2ccc(Cl)cc2[C@@](C#CC2CC2)(C(F)(F)F)O1` [Efavirenz], for which the “release / release rate of the active ingredient” value is listed as “much higher”.
